Test results reported in PubChem BioAssay (NCI).
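How tested: cells in 96-well plates exposed to compound for 48 hours at five concentrations. Here, GI50 denotes the concentration required for 50% inhibition of growth. TGI denotes the concentration required for complete inhibition of growth.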

Legend:
Test in all cases: growth of human tumour cells (NCI), 48 h
[1] = tested on: OVCAR-3 ovarian
[2] = tested on: UO-31 renal
[3] = tested on: K-562 leukemia
[4] = tested on: SF-295 CNS
[5] = tested on: HCT-116 colon
[6] = tested on: SN12C renal
[7] = tested on: HCC-2998 colon
[8] = tested on: TK-10 renal
[9] = tested on: COLO 205 colon
[10] = tested on: LOX IMVI melanoma
[11] = tested on: SF-539 CNS
[12] = tested on: SK-MEL-2 melanoma
[13] = tested on: PC-3 prostate
[14] = tested on: MDA-MB-468 breast
[15] = tested on: A549 NSCLC
[16] = tested on: SR leukemia
[17] = tested on: HOP-92 NSCLC
[18] = tested on: OVCAR-4 ovarian
[19] = tested on: NCI/ADR-RES ovarian
[20] = tested on: EKVX NSCLC
[21] = tested on: SNB-19 CNS
[22] = tested on: NCI-H23 lung
[23] = tested on: 786-0 renal
[24] = tested on: UACC-257 melanoma
[25] = tested on: M14 melanoma
[26] = tested on: RXF 393 renal
[27] = tested on: BT-549 breast
[28] = tested on: NCI-H460 lung
[29] = tested on: U251 CNS
[30] = tested on: RPMI-8226 leukemia
[31] = tested on: SNB-75 CNS
[32] = tested on: MDA-MB-435
[33] = tested on: NCI-H522 lung
[34] = tested on: HT29 colon
[35] = tested on: NCI-H226 lung
[36] = tested on: HOP-62 NSCLC
[37] = tested on: SK-MEL-28 melanoma
[38] = tested on: DU-145 prostate
[39] = tested on: MDA-MB-231 breast
[40] = tested on: SK-OV-3 ovarian
[41] = tested on: UACC-62 melanoma
[42] = tested on: OVCAR-5 ovarian
[43] = tested on: OVCAR-8 ovarian
[44] = tested on: SW-620 colon
[45] = tested on: KM12 colon
[46] = tested on: HL-60(TB) leukemia
[47] = tested on: IGROV1 ovarian
[48] = tested on: MOLT-4 leukemia
[49] = tested on: SK-MEL-5 melanoma
[50] = tested on: SF-268 CNS
[51] = tested on: HS 578T breast
[52] = tested on: CAKI-1 renal
[53] = tested on: HCT-15 colon
[54] = tested on: ACHN renal
[55] = tested on: MCF7 breast
[56] = tested on: A498 renal
[57] = tested on: T-47D breast
[58] = tested on: CCRF-CEM leukemia

O=C(N/N=C/c1occc1Br)c1[nH]c2ccc(Br)cc2c1-c1ccccc1
GI50 [1]: 0.351 µM | TGI [1]: 11.8 µM | GI50 [2]: 0.746 µM | TGI [2]: 21.1 µM | GI50 [3]: 0.384 µM | TGI [3]: > 100 µM | GI50 [4]: 0.359 µM | TGI [4]: 13.5 µM | GI50 [5]: 0.557 µM | TGI [5]: 12.6 µM | GI50 [6]: 1.51 µM | TGI [6]: 12.5 µM | GI50 [7]: 1.79 µM | TGI [7]: 13.7 µM | GI50 [8]: 7.68 µM | TGI [8]: 26.5 µM | GI50 [9]: 0.561 µM | TGI [9]: 3.97 µM | GI50 [10]: 0.663 µM | TGI [10]: 12.7 µM | GI50 [11]: 1.16 µM | TGI [11]: 4.36 µM | GI50 [12]: 0.675 µM | TGI [12]: 16.9 µM | GI50 [13]: 0.941 µM | TGI [13]: 14.9 µM | GI50 [14]: 0.383 µM | TGI [14]: 16.9 µM | GI50 [15]: 1.95 µM | TGI [15]: 21.9 µM | GI50 [16]: 0.459 µM | TGI [16]: 30 µM | GI50 [17]: 11.2 µM | TGI [17]: 24.7 µM | GI50 [18]: 7.1 µM | TGI [18]: 22 µM | GI50 [19]: 0.348 µM | TGI [19]: 3.24 µM | GI50 [20]: 1.93 µM | TGI [20]: 17.3 µM | GI50 [21]: 2.85 µM | TGI [21]: 19.3 µM | GI50 [22]: 2.05 µM | TGI [22]: 13.2 µM | GI50 [23]: 0.677 µM | TGI [23]: 16.7 µM | GI50 [24]: 12.5 µM | TGI [24]: 28.8 µM | GI50 [25]: 0.669 µM | TGI [25]: 15.8 µM | GI50 [26]: 2.68 µM | TGI [26]: 22.2 µM | GI50 [27]: 0.743 µM | TGI [27]: 12.9 µM | GI50 [28]: 0.756 µM | TGI [28]: 10.9 µM | GI50 [29]: 3.22 µM | TGI [29]: 16.8 µM | GI50 [30]: 2.44 µM | TGI [30]: 20.5 µM | GI50 [31]: 0.832 µM | TGI [31]: 14.2 µM | GI50 [32]: 0.249 µM | TGI [32]: 0.875 µM | GI50 [33]: 0.183 µM | TGI [33]: 0.5 µM | GI50 [34]: 0.456 µM | TGI [34]: 2.68 µM | GI50 [35]: 2.51 µM | TGI [35]: 16.6 µM | GI50 [36]: 0.668 µM | TGI [36]: 18.1 µM | GI50 [37]: 5.05 µM | TGI [37]: 20.9 µM | GI50 [38]: 2.71 µM | TGI [38]: 13.1 µM | GI50 [39]: 1.1 µM | TGI [39]: 14.6 µM | GI50 [40]: 1.5 µM | TGI [40]: 18.1 µM | GI50 [41]: 0.384 µM | TGI [41]: 16.7 µM | GI50 [42]: 2.79 µM | TGI [42]: 13.6 µM | GI50 [43]: 2.3 µM | TGI [43]: 11.3 µM | GI50 [44]: 0.443 µM | TGI [44]: 14.3 µM | GI50 [45]: 1.26 µM | TGI [45]: 14.1 µM | GI50 [46]: 0.344 µM | TGI [46]: 2.02 µM | GI50 [47]: 1.23 µM | TGI [47]: 13.7 µM | GI50 [48]: 1.45 µM | TGI [48]: 12.8 µM | GI50 [49]: 0.677 µM | TGI [49]: 6.21 µM | GI50 [50]: 1.74 µM | TGI [50]: 16.2 µM | GI50 [51]: 0.759 µM | TGI [51]: 18.4 µM | GI50 [52]: 0.698 µM | TGI [52]: 17.1 µM | GI50 [53]: 0.516 µM | TGI [53]: 11.7 µM | GI50 [54]: 0.952 µM | TGI [54]: 16.2 µM | GI50 [55]: 0.323 µM | TGI [55]: 11.9 µM | GI50 [56]: 14.8 µM | TGI [56]: 28.8 µM | GI50 [57]: 0.484 µM | TGI [57]: 19.7 µM | GI50 [58]: 0.512 µM | TGI [58]: 11 µM

O=C1NC(=NC23CC4CC(CC(C4)C2)C3)N/C1=C\c1ccc2ncsc2c1
GI50 [1]: 1.74 µM | TGI [1]: 6.73 µM | GI50 [2]: 2.96 µM | TGI [2]: 8.04 µM | GI50 [3]: 0.762 µM | TGI [3]: > 100 µM | GI50 [4]: 3.4 µM | TGI [4]: > 100 µM | GI50 [5]: 0.323 µM | TGI [5]: > 100 µM | GI50 [6]: 0.842 µM | TGI [6]: > 100 µM | GI50 [7]: 3.32 µM | TGI [7]: > 100 µM | GI50 [8]: 2.87 µM | TGI [8]: > 100 µM | GI50 [9]: 1.8 µM | TGI [9]: 6.77 µM | GI50 [10]: 0.928 µM | TGI [10]: > 100 µM | GI50 [11]: 0.432 µM | TGI [11]: 3.06 µM | GI50 [12]: 0.933 µM | TGI [12]: 3.13 µM | GI50 [13]: 3.29 µM | TGI [13]: > 100 µM | GI50 [14]: 1.24 µM | TGI [14]: 3.67 µM | GI50 [15]: 1.19 µM | TGI [15]: > 100 µM | GI50 [16]: 0.17 µM | TGI [16]: 1.24 µM | GI50 [18]: 3.2 µM | TGI [18]: > 100 µM | GI50 [21]: 3.58 µM | TGI [21]: > 100 µM | GI50 [22]: 1.58 µM | TGI [22]: 7.36 µM | GI50 [23]: 3.05 µM | TGI [23]: > 100 µM | GI50 [24]: 4.11 µM | TGI [24]: > 100 µM | GI50 [25]: 2.42 µM | TGI [25]: > 100 µM | GI50 [26]: 2.01 µM | TGI [26]: 4.21 µM | GI50 [27]: 1.63 µM | TGI [27]: 7 µM | GI50 [28]: 0.538 µM | TGI [28]: > 100 µM | GI50 [29]: 1.79 µM | TGI [29]: > 100 µM | GI50 [30]: 1.2 µM | TGI [30]: 5.14 µM | GI50 [31]: 1.62 µM | TGI [31]: 4.29 µM | GI50 [32]: 3.11 µM | TGI [32]: > 100 µM | GI50 [33]: 0.168 µM | TGI [33]: 4.79 µM | GI50 [34]: 3.09 µM | TGI [34]: > 100 µM | GI50 [35]: 1.43 µM | TGI [35]: > 100 µM | GI50 [36]: 3.35 µM | TGI [36]: > 100 µM | GI50 [40]: 5.47 µM | TGI [40]: > 100 µM | GI50 [41]: 3.11 µM | TGI [41]: > 100 µM | GI50 [42]: 2.45 µM | TGI [42]: > 100 µM | GI50 [43]: 1.68 µM | TGI [43]: > 100 µM | GI50 [44]: 1.81 µM | TGI [44]: > 100 µM | GI50 [45]: 1.8 µM | TGI [45]: > 100 µM | GI50 [46]: 1.63 µM | TGI [46]: 5.25 µM | GI50 [47]: 2.58 µM | TGI [47]: > 100 µM | GI50 [48]: 1.65 µM | TGI [48]: > 100 µM | GI50 [49]: 0.899 µM | TGI [49]: 5.56 µM | GI50 [50]: 2.23 µM | TGI [50]: 6.58 µM | GI50 [51]: 2.73 µM | TGI [51]: 8.13 µM | GI50 [52]: 1.33 µM | TGI [52]: > 100 µM | GI50 [53]: 0.663 µM | TGI [53]: > 100 µM | GI50 [55]: 1.37 µM | TGI [55]: > 100 µM | GI50 [56]: 2.7 µM | TGI [56]: 7.79 µM | GI50 [58]: 1.12 µM | TGI [58]: 5.96 µM
